# Measured values published in patent US5290948A, “Process for producing polyhydroxylated piperidines and pyrrolidines and compounds thereof” (McNeilab, Inc., priority 1990, dated 1994).
# Where a name gives a salt, the structure may show the parent alone.
# Assays:
# Maltase = assay: Inhibition of maltase (α-glycosidase, maltose-cleaving activity); assay type: biochemical, rabbit; settings: for Inh. of Maltase: at 100 µM (Table 1 head)
# Experimental: […] In addition compounds 1 and 2 were screened at a dose of 1 mM. These compounds are described in Examples 6, 81 10, 11 and 12. […] Compounds 1, 2, 6 and 12 are novel compounds having glucitol stereochemistry. Compound 11 is likewise novel and it has the iditol stereochemistry.
# (§1) The inhibition of maltase (sucrase) tests was carried out as recited hereinafter. Partially purified α-glycosidase was isolated from the rabbit's small intestine as described in the literature (B. L. Rhinehart et al. Life Sci. 1987, 41, 2325). The α-glycosidase activity was measured using […] as substrates. β-Glycosidase from almonds was obtained from Sigma (St. Louis), and β-glycosidase activity was measured using lactose as a substrate. The incubation mixture (200 μL) consisted of substrate (100 mM), enzyme, 100 mM NaCl, 0.1 mM Na2 EDTA and either 10 mM MOPS (for pH 7), 10 mM maleic acid (for pH 6), or 10 Mm acetate (for pH 5) as buffer (adjusted to their respective pH with NaOH). Compounds dissolved in dimethylsulfoxide were added (final concentration of dimethylsulfoxide in the assay was 1%). The assay was performed at 37 deg C. for 30 minutes and arrested by incubation for 3 min at 85 deg C. After centrifugation for 2 min at 10,000 g, the supernatant was collected and processed for glucose determination. Glucose was measured with the hexokinase method (kit obtained from Boehringer Mannheim) on an EPOS 5060 EPPENDORF autoanalyser.
# β-Glycosidase = assay: Inhibition of lactose activity (β-glycosidase); assay type: biochemical, almonds
# Experimental: as §1
# HIV-1 = assay: Anti-HIV-1 activity in MT-4 cells; assay type: cell-based; settings: for HIV1/HIV2 Act. (HIV1): Table 1, MT-4 cells, viable cells after five days; for inhibited the growth of HIV-1: at high concentrations
# Experimental: Anti-HIV-1 activity was tested in MT-4 cells as described previously (Pauwels et al. J. Virol Methods 1987, 11, 171). The cells were either infected with HIV-1 or mock infected and incubated in the presence of the test compounds. The number of viable cells was then determined after five days (Pauwels et al. J. Virol Methods 1988, 20, 309).
# glycosidase = assay: Glycosidase inhibition, overall statement; assay type: biochemical
# Experimental: Compounds 6, 11 and 12 in Table 1 were screened at a single dose (100 micromolar) against sucrase and maltase, two glycosidase enzymes. In addition compounds 1 and 2 were screened at a dose of 1 mM. These compounds are described in Examples 6, 81 10, 11 and 12. […] Compounds 1, 2, 6 and 12 are novel compounds having glucitol stereochemistry. Compound 11 is likewise novel and it has the iditol stereochemistry.
# as §1
# Sucrase = target: T1, Sucrase (Oryctolagus cuniculus, UniProt P07768); assay: Inhibition of sucrase (α-glycosidase); assay type: biochemical, rabbit; settings: at 100 mM (Table 1 head)
# T1 construct: Partially purified α-glycosidase was isolated from the rabbit's small intestine; from tissue; host or cells: rabbit small intestine, partially purified
# Experimental: […] In addition compounds 1 and 2 were screened at a dose of 1 mM. These compounds are described in Examples 6, 81 10, 11 and 12.
# as §1
# HIV2 = assay: Anti-HIV-2 activity; assay type: cell-based; settings: Table 1
# T1 sequence (P07768 1008-1827 limits assumed): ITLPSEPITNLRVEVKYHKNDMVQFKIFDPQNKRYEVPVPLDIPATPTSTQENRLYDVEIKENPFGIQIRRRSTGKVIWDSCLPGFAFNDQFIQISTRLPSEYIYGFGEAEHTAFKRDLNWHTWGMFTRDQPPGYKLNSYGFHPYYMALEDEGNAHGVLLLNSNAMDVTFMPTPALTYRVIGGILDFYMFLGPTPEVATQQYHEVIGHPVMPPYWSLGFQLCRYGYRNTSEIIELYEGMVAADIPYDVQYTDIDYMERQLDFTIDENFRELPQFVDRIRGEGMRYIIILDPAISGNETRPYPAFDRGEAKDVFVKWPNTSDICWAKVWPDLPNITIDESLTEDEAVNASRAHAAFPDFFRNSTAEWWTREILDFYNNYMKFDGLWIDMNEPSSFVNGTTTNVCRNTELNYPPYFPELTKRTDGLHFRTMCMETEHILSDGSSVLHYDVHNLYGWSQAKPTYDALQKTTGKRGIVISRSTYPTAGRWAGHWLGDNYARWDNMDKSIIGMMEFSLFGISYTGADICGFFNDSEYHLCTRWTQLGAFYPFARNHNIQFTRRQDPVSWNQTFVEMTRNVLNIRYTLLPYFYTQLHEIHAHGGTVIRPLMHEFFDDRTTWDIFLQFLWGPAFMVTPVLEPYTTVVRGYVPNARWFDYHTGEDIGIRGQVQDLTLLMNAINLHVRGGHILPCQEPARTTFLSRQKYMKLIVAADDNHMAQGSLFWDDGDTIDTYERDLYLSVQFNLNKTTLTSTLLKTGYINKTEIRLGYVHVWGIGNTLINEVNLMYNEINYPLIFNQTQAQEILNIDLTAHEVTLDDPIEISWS
# T1 sequence (P07768 2-1007 partner limits assumed): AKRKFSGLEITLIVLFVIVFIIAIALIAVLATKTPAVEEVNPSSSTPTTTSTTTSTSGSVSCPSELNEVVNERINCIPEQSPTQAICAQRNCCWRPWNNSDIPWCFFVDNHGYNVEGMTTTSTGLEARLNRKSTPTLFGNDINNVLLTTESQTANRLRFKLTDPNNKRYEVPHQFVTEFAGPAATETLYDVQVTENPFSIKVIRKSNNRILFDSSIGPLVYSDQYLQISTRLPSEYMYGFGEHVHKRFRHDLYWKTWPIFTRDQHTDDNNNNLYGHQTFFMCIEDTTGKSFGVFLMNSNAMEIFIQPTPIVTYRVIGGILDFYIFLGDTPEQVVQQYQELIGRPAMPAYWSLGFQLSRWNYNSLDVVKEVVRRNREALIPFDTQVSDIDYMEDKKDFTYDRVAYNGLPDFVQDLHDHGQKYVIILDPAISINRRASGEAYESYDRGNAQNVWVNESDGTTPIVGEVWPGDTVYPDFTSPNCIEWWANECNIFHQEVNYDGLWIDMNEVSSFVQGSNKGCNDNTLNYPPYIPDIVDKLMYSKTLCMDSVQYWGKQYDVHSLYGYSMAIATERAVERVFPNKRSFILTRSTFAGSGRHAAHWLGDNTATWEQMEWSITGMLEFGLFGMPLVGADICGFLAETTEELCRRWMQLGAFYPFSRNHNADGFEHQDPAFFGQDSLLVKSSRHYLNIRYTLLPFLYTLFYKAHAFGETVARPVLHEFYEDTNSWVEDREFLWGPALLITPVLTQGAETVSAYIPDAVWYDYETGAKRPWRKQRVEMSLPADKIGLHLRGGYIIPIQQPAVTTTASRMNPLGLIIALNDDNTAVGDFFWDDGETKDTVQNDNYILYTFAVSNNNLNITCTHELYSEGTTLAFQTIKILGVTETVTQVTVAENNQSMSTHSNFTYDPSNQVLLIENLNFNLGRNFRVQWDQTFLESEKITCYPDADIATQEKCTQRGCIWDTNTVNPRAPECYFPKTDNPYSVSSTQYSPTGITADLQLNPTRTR
compound,measurement,setting,value
OC[C@@H]1[C@@H](O)[C@H](O)[C@H](CO)N1C(c1ccccc1)c1ccccc1 [Compound 1],Inh. of Maltase,Maltase,0%
same,inhibition of maltase,Maltase; at 10^-3 M (footnote 1),40%
same,inhibition of lactose activity,"β-Glycosidase; at 10^-4 M, pH 5 (footnote 1)",58%
same,HIV1/HIV2 Act. (HIV1),HIV-1,Weak anti-HIV1 act.
same,inhibited the growth of HIV-1,HIV-1,inhibited the growth of HIV-1 at high concentrations
same,glycosidase inhibition (in words),glycosidase,glycosidase inhibitors
"OC[C@@H]1N[C@H](CO)[C@@H](O)[C@@H]1O [Compound 2, 2,5-Anhydro-2,5-imino-D-glucitol]",Inh. of Maltase,Maltase,0%
same,inhibition of lactose activity,"β-Glycosidase; at 10^-3 M, pH 5 (footnote 2)",44%
same,HIV1/HIV2 Act. (HIV1),HIV-1,No anti-HIV1 act.
same,glycosidase inhibition (in words),glycosidase,glycosidase inhibitors
"OC[C@@H]1[C@@H](O)[C@H](O)[C@@H](CO)N1C(c1ccccc1)c1ccccc1 [Compound 3, N-Benzhydryl-2,5-anhydro-2,5-imino-D-mannitol]",Inh. of Maltase,Maltase,0%
same,HIV1/HIV2 Act. (HIV1),HIV-1,No anti-HIV1 act.
OCC1[C@@H](O)[C@H](O)C(CO)N1CCCOc1ccc(F)cc1 (some centres unmarked) [Compound 8],Inh. of Maltase,Maltase,0%
same,HIV1/HIV2 Act. (HIV1),HIV-1,No anti-HIV1 act.
"OC[C@@H]1[C@@H](O)[C@H](O)[C@H](CO)N1c1ccc(F)cc1 [Compound 9, N-(4-Fluorophenyl)-2,5-anhydro-2,5-imino-D-glucitol]",Inh. of Maltase,Maltase,0%
same,HIV1/HIV2 Act. (HIV1),HIV-1,No anti-HIV1 act.
OC[C@@H]1[C@@H](O)[C@H](O)[C@@H](CO)N1c1ccc(F)cc1 [Compound 10],Inh. of Maltase,Maltase,0%
same,HIV1/HIV2 Act. (HIV1),HIV-1,No anti-HIV1 act.
OC[C@H]1[C@@H](O)[C@H](O)[C@H](CO)N1c1ccc(F)cc1 [Compound 11],Inh. of Maltase,Maltase,19%
same,HIV1/HIV2 Act. (HIV1),HIV-1,No anti-HIV1 act.
same,glycosidase inhibition (in words),glycosidase,glycosidase inhibitors
"OC[C@@H]1[C@@H](O)[C@H](O)[C@H](CO)N1CCCC(c1ccc(F)cc1)c1ccc(F)cc1 [Compound 12, N-[4,4-bis(4-Fluorophenyl)butyl]-2,5-anhydro-2,5-imino-D-glucitol tosylate]",Inh. of Maltase,Maltase,20%
same,HIV1/HIV2 Act. (HIV1),HIV-1,Weak anti-HIV1 act.
same,inhibited the growth of HIV-1,HIV-1,inhibited the growth of HIV-1 at high concentrations
same,glycosidase inhibition (in words),glycosidase,glycosidase inhibitors
CCOC(=O)N1CCC(N2C(CO)[C@@H](O)[C@H](O)C2CO)CC1 (some centres unmarked) [Compound 13],Inh. of Maltase,Maltase,0%
same,HIV1/HIV2 Act. (HIV1),HIV-1,No anti-HIV1 act.
OCCCN1C(CO)[C@@H](O)[C@H](O)C1CO (some centres unmarked) [Compound 15],Inh. of Maltase,Maltase,0%
CCCCN1[C@H](CO)[C@@H](O)[C@H](O)[C@@H]1CO [Compound 16],Inh. of Maltase,Maltase,0%
OCC1[C@@H](O)[C@H](O)C(CO)N1CCc1ccc(F)cc1 (some centres unmarked) [Compound 17],HIV1/HIV2 Act. (HIV1),HIV-1,No anti-HIV1 act.
COC1CN(CCCOc2ccc(F)cc2)CCC1N1C(CO)[C@@H](O)[C@H](O)[C@H]1CO (some centres unmarked) [Compound 22],Inh. of Maltase,Maltase,0%
same,HIV1/HIV2 Act. (HIV1),HIV-1,No anti-HIV1 act.
"N-Stearyl-2,5-anhydro-2,5-imino-D-glucitol [Compound 6]",Inh. of Maltase,Maltase,1%
same,Inh. of (Sucrase),Sucrase,6%
same,HIV1/HIV2 Act. (HIV1),HIV-1,Weak anti-HIV1 and HIV2
same,inhibited the growth of HIV-1,HIV-1,inhibited the growth of HIV-1 at high concentrations
same,HIV1/HIV2 Act. (HIV2),HIV2,Weak anti-HIV1 and HIV2
same,glycosidase inhibition (in words),glycosidase,glycosidase inhibitors
